ChEMBL document CHEMBL1201862, “PubChem BioAssay data set” (2004)
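48-hour exposure; five concentrations; linearly interpolated endpoints. GI50 is the concentration that inhibits growth by half.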 Activity calls are given as the source filed them. Cut-off read from the data, not from the text of the source: active = GI50 up to about 1.1 µM and inactive = higher.

What was measured:
Assay in all cases: DTP human tumour cell line panel, 48 h
SF-295 = tested on: SF-295
IGROV-1 = tested on: IGROV-1
UO-31 = tested on: UO-31
Malme-3M = tested on: Malme-3M
SK-MEL-5 = tested on: SK-MEL-5
CAKI-1 = tested on: CAKI-1
OVCAR-5 = tested on: OVCAR-5
NCI-H522 = tested on: NCI-H522
NCI-H23 = tested on: NCI-H23
A549 = tested on: A549
HCC 2998 = tested on: HCC 2998
M14 = tested on: M14
HOP-62 = tested on: HOP-62
CCRF-CEM = tested on: CCRF-CEM
786-0 = tested on: 786-0
EKVX = tested on: EKVX
COLO 205 = tested on: COLO 205

Measured: GI50

O=[N+]([O-])c1cccnc1S(=O)(=O)c1ccccc1
inactive: SF-295 18.5 µM | IGROV-1 8.13 µM | UO-31 6.52 µM | Malme-3M 11.1 µM | SK-MEL-5 18.1 µM | CAKI-1 2.9 µM | OVCAR-5 15.8 µM | NCI-H522 1.46 µM | NCI-H23 15.8 µM | A549 21.8 µM | HCC 2998 13.6 µM | M14 9.4 µM | HOP-62 17.3 µM | CCRF-CEM 4.21 µM | 786-0 2.48 µM | EKVX 6.4 µM | COLO 205 5.97 µM

O=C(O)c1oc2cccc3c2c1CCC3
inactive: SF-295 > 100 µM | IGROV-1 > 100 µM | UO-31 12.8 µM | Malme-3M > 100 µM | SK-MEL-5 > 100 µM | OVCAR-5 > 100 µM | NCI-H522 > 100 µM | NCI-H23 > 100 µM | A549 > 100 µM | HCC 2998 > 100 µM | M14 > 100 µM | HOP-62 > 100 µM | CCRF-CEM > 100 µM | 786-0 > 100 µM | EKVX > 100 µM | COLO 205 > 100 µM

O=C(O)Cn1c(=O)[nH]c(=O)c2[nH]cnc21
inactive: IGROV-1 > 100 µM | UO-31 > 100 µM | Malme-3M > 100 µM | SK-MEL-5 > 100 µM | OVCAR-5 > 100 µM | NCI-H522 > 100 µM | NCI-H23 > 100 µM | A549 > 100 µM | HCC 2998 > 100 µM | M14 > 100 µM | HOP-62 > 100 µM | CCRF-CEM > 100 µM | 786-0 > 100 µM | EKVX > 100 µM | COLO 205 > 100 µM

O=C(NCC(=O)N1CCOC1=O)OCc1ccccc1
inactive: SF-295 > 100 µM | IGROV-1 > 100 µM | UO-31 > 100 µM | SK-MEL-5 > 100 µM | NCI-H522 > 100 µM | NCI-H23 > 100 µM | A549 > 100 µM | HCC 2998 > 100 µM | M14 > 100 µM | HOP-62 > 100 µM | CCRF-CEM > 100 µM | 786-0 > 100 µM | EKVX > 100 µM | COLO 205 > 100 µM

Cc1cc(N(CCC#N)S(=O)(=O)c2ccccc2)ccc1/C=C1\N=C(c2ccc(Cl)cc2)OC1=O
inactive: SF-295 > 100 µM | IGROV-1 > 100 µM | UO-31 > 100 µM | Malme-3M > 100 µM | SK-MEL-5 > 100 µM | CAKI-1 > 100 µM | OVCAR-5 > 100 µM | NCI-H23 > 100 µM | A549 > 100 µM | HCC 2998 > 100 µM | M14 > 100 µM | CCRF-CEM 55.5 µM | 786-0 > 100 µM | EKVX > 100 µM | COLO 205 > 100 µM

CN(O)C(=O)Cc1ccccc1
inactive: SF-295 > 100 µM | IGROV-1 > 100 µM | UO-31 > 100 µM | Malme-3M > 100 µM | SK-MEL-5 > 100 µM | CAKI-1 > 100 µM | OVCAR-5 > 100 µM | NCI-H522 > 100 µM | NCI-H23 > 100 µM | A549 > 100 µM | HCC 2998 > 100 µM | M14 > 100 µM | HOP-62 > 100 µM | CCRF-CEM > 100 µM | 786-0 > 100 µM | COLO 205 > 100 µM

C/C(=C\CNc1ncnc2c1ncn2C1CCCCO1)COP(=O)(O)O (stereo unspecified)
inactive: SF-295 > 100 µM | IGROV-1 > 100 µM | UO-31 > 100 µM | Malme-3M > 100 µM | SK-MEL-5 > 100 µM | CAKI-1 > 100 µM | OVCAR-5 > 100 µM | NCI-H522 > 100 µM | NCI-H23 > 100 µM | A549 > 100 µM | HCC 2998 > 100 µM | M14 > 100 µM | HOP-62 > 100 µM | CCRF-CEM > 100 µM | 786-0 > 100 µM | EKVX > 100 µM | COLO 205 > 100 µM

CC(C)(C)c1ccc2c(c1)C(O)(c1ccccc1)c1cc(C(C)(C)C)ccc1C2(O)C(F)(F)F (stereo unspecified)
inactive: SF-295 1.43 µM | IGROV-1 2.15 µM | UO-31 2.11 µM | Malme-3M 2.51 µM | CAKI-1 1.74 µM | OVCAR-5 1.66 µM | NCI-H522 1.64 µM | NCI-H23 1.81 µM | A549 1.88 µM | HCC 2998 2.1 µM | M14 1.92 µM | HOP-62 1.29 µM | CCRF-CEM 2.13 µM | 786-0 1.88 µM | EKVX 3.03 µM | COLO 205 1.82 µM

COc1ccc2c(c1)N1CCc3cc(OC)c(OC)cc3C1C2 (stereo unspecified)
inactive: SF-295 88.7 µM | IGROV-1 28.4 µM | UO-31 85.9 µM | Malme-3M 30.5 µM | CAKI-1 53.2 µM | NCI-H522 23.7 µM | NCI-H23 50.1 µM | A549 47.8 µM | HCC 2998 51.1 µM | HOP-62 > 100 µM | CCRF-CEM 61 µM | 786-0 54.6 µM | EKVX > 100 µM | COLO 205 > 100 µM

O=C(CC1=Nc2nnc(CCCCCCCc3nnc4n3C(=O)C(CC(=O)c3ccccc3)=N4)n2C1=O)c1ccccc1
inactive: SF-295 > 100 µM | IGROV-1 > 100 µM | UO-31 > 100 µM | Malme-3M > 100 µM | SK-MEL-5 > 100 µM | CAKI-1 > 100 µM | OVCAR-5 > 100 µM | NCI-H522 > 100 µM | NCI-H23 > 100 µM | A549 > 100 µM | HCC 2998 > 100 µM | M14 > 100 µM | HOP-62 > 100 µM | CCRF-CEM > 100 µM | 786-0 > 100 µM | EKVX > 100 µM | COLO 205 > 100 µM

N=C(N)NNC(=O)CCn1[nH]c(=O)c(Cl)c(Cl)c1=O
inactive: SF-295 > 100 µM | IGROV-1 > 100 µM | UO-31 > 100 µM | Malme-3M > 100 µM | SK-MEL-5 > 100 µM | CAKI-1 > 100 µM | OVCAR-5 > 100 µM | NCI-H522 > 100 µM | NCI-H23 > 100 µM | A549 > 100 µM | HCC 2998 > 100 µM | M14 > 100 µM | HOP-62 > 100 µM | CCRF-CEM > 100 µM | 786-0 > 100 µM | EKVX > 100 µM | COLO 205 > 100 µM

O=C1[C@@H]2C(c3ccncc3)=NO[C@@H]2C(=O)N1c1ccc(Cc2ccc(N3C(=O)[C@H]4C(c5ccncc5)=NO[C@H]4C3=O)cc2)cc1
inactive: SF-295 > 100 µM | IGROV-1 > 100 µM | UO-31 > 100 µM | Malme-3M 99.1 µM | SK-MEL-5 > 100 µM | CAKI-1 > 100 µM | OVCAR-5 > 100 µM | NCI-H23 > 100 µM | A549 > 100 µM | HCC 2998 > 100 µM | M14 > 100 µM | HOP-62 > 100 µM | CCRF-CEM > 100 µM | 786-0 > 100 µM | EKVX > 100 µM | COLO 205 > 100 µM

CC(O)C(N/C=C1/N=C(c2ccccc2)OC1=O)C(=O)O (stereo unspecified)
inactive: SF-295 > 100 µM | IGROV-1 > 100 µM | UO-31 > 100 µM | Malme-3M > 100 µM | SK-MEL-5 > 100 µM | CAKI-1 > 100 µM | OVCAR-5 > 100 µM | NCI-H522 > 100 µM | NCI-H23 > 100 µM | A549 > 100 µM | HCC 2998 > 100 µM | M14 > 100 µM | HOP-62 > 100 µM | CCRF-CEM > 100 µM | 786-0 > 100 µM | EKVX > 100 µM | COLO 205 > 100 µM

CSc1nc(O)c2cn(Cc3ccccc3)nc2n1
inactive: SF-295 > 100 µM | IGROV-1 > 100 µM | UO-31 > 87.3 µM | Malme-3M > 100 µM | SK-MEL-5 > 100 µM | CAKI-1 41 µM | OVCAR-5 > 100 µM | NCI-H522 > 100 µM | NCI-H23 > 100 µM | A549 > 100 µM | HCC 2998 > 100 µM | M14 > 91.6 µM | HOP-62 > 100 µM | CCRF-CEM 44 µM | 786-0 > 100 µM | EKVX > 100 µM | COLO 205 > 100 µM

CCOC(=O)c1nc(C)oc1C(F)(F)F
inactive: SF-295 > 100 µM | IGROV-1 > 100 µM | UO-31 > 100 µM | Malme-3M > 100 µM | CAKI-1 > 100 µM | OVCAR-5 > 100 µM | NCI-H522 > 100 µM | NCI-H23 > 100 µM | A549 > 100 µM | HCC 2998 > 100 µM | M14 > 100 µM | HOP-62 > 100 µM | CCRF-CEM > 100 µM | 786-0 > 100 µM | EKVX > 100 µM | COLO 205 > 100 µM

ONc1ncnc2[nH]cnc12
inactive: SF-295 > 100 µM | IGROV-1 > 100 µM | UO-31 > 100 µM | Malme-3M > 100 µM | SK-MEL-5 > 100 µM | CAKI-1 > 100 µM | OVCAR-5 > 100 µM | NCI-H522 > 100 µM | NCI-H23 > 100 µM | A549 > 100 µM | HCC 2998 > 100 µM | M14 > 100 µM | HOP-62 > 100 µM | CCRF-CEM > 100 µM | 786-0 > 100 µM | COLO 205 > 100 µM

OC(CCl)CN1CC[N+]2(CC1)CC[N+]1(CCN(CC(O)CCl)CC1)CC2 (stereo unspecified) [PROSPIDIUM CHLORIDE]
inactive: SF-295 > 50 µM | IGROV-1 > 50 µM | UO-31 > 50 µM | Malme-3M > 50 µM | SK-MEL-5 > 50 µM | CAKI-1 > 50 µM | NCI-H522 > 50 µM | NCI-H23 > 50 µM | A549 > 50 µM | HCC 2998 > 50 µM | M14 > 50 µM | CCRF-CEM > 50 µM | 786-0 > 50 µM | EKVX > 50 µM | COLO 205 > 50 µM
